“Also recorded” adds a separate entry of the source.
How the values were obtained:
α2β3γ2L GABAARs [1] = molecular target: T1, α2β3γ2L GABAARs (Homo sapiens, UniProt P18507+P28472+P47869); test: Two-electrode voltage clamp of recombinant α2β3γ2L GABAARs expressed in Xenopus oocytes; format: cell-based
T1 construct: expressed in transfected cells; host or cells: Xenopus laevis oocytes injected with capped mRNA, α2:β3:γ2L 3:1:3
Source text: (§1) Human complementary DNA (cDNA) of GABAAR α2 subunit (vector: pCMV6-XL5) was purchased from OriGene Technologies (Rockville, MD, USA), and the human β3 (vector: pGEMHE) and γ2L (vector: pCDM8) subunits were generous gifts from Dr. Bjarke Ebert (H. Lundbeck A/S, Valby, Denmark) and Dr. Paul Whiting (Merck, Sharp and Dohme Research Laboratories, Harlow, Essex, UK) respectively. […] Plasmid vectors with the cDNA incorporated were linearised using appropriate restriction endonucleases (α2: SmaI; β3: NheI; γ2L: NotI). Capped RNA transcripts were synthesised from linearised plasmids using the mMessage mMachine T7 transcript kit from Ambion (Austin, TX, USA). Purified messenger RNA (mRNA) was dissolved in nuclease-free water (Ambion, Austin, TX, USA), and its quality was assessed using 1% agarose gel electrophoresis. The concentration of each subunit mRNA was measured using Nanodrop ND-100 UV-Vis spectrophotometer (Thermo Fisher Scientific, North Ryde, NSW, Australia).
(§2) Various combinations of α2, β3 and γ2L subunit mRNAs were mixed to different ratios as stated in the text, and diluted accordingly to a concentration of 5 ng/μL (unless otherwise stated). […] Injected oocytes were stored in ND96 storage solution supplemented with 50 μg/mL gentamycin and tetracycline at 18°C. Two-electrode voltage clamp recordings were performed on oocytes 2–4 days post-injection at room temperature (20–25°C) using a GeneClamp 500B amplifier (ADInstruments, Sydney, NSW, Australia) or a Warner OC-725C Oocyte Clamp (Warner Instrument Corp, Hamden, CT, USA). All experiments were conducted at a holding potential of –60 mV, and data were acquired with a PowerLab 2/25, and LabChart (version 5.0.2) software (ADInstruments, Sydney, NSW, Australia). The recording microelectrodes (0.2–1.1 MΩ) were generated from capillary glass (Harvard Apparatus, Holliston, MA, USA) using a single-stage glass microelectrode puller (Narishige, Tokyo, Japan), and were filled with 3 M KCl solution. The perfusion system was built using a series of polycarbonate, high-density polyethylene two-way stopcocks (Qosina, Edgewood, NY, USA), connected through tubing to the recording chamber (100 μL), where the oocyte was continuously perfused with ND96 recording solution (96 mM NaCl, 2 mM KCl, 1 mM MgCl2, 1.8 mM CaCl2, 5 mM HEPES hemisodium; pH 7.4) at an approximate rate of 5 mL/min.
(§3) Perfusates containing these chemicals were made up fresh before each application. The concentration-response curves of agonists were obtained by exposing oocytes to increasing concentrations of agonists until the currents peaked. […] All experiments were performed using at least two different batches of oocytes.
(§4) Prism (version 5.04; GraphPad Software, La Jolla, CA, USA) was used for data analysis.
(§5) In all cases, we constrained the bottom to 0, and when fitting data to the biphasic model, the Hill slopes were constrained to 1. Statistical comparisons of results for different injection ratios of β3γ2L receptors were performed using ANOVA with Tukey’s post-hoc test. When comparing results from different injection ratios of β3γ2L receptors with α2β3γ2L receptors, the ANOVA Dunnett’s test was used. Pairwise comparisons were performed using Student’s t test. Statistical significance was attained at p < 0.05.

α2β3 GABAARs = molecular target: T2, α2β3 GABAARs (Homo sapiens, UniProt P28472+P47869); test: Two-electrode voltage clamp of binary α2β3 GABAARs expressed in Xenopus oocytes; format: cell-based
T2 construct: expressed in transfected cells; host or cells: Xenopus laevis oocytes injected with capped mRNA, α2:β3 20:1
T2 sequence (P47869 29-451): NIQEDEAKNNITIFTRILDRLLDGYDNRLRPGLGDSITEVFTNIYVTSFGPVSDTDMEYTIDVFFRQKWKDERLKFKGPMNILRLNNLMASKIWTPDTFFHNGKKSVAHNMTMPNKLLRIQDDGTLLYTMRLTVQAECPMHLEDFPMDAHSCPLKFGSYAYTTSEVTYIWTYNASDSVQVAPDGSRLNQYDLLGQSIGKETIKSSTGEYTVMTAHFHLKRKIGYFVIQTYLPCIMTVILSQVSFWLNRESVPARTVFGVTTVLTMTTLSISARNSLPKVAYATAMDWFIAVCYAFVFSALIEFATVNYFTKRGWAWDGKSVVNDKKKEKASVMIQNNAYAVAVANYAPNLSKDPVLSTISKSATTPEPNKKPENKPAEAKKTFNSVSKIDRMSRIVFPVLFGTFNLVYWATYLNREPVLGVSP
T2 sequence (P28472 26-473): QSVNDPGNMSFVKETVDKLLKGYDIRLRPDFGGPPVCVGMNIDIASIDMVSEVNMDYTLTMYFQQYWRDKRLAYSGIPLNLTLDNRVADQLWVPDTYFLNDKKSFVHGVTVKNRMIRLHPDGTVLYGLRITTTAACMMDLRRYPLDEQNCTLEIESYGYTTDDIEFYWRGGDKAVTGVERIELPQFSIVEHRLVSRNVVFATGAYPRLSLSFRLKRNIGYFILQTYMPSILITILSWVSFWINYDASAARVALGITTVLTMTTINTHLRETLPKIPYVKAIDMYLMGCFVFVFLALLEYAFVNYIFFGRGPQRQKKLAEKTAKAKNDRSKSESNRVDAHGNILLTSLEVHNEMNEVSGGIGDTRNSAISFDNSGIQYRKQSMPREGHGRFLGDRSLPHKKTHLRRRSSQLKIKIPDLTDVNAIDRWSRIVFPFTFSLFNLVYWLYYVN
Source text: as §1, §2, §3, §4, §5

β3 homomeric receptors = molecular target: T3, β3 homomeric receptors (Homo sapiens, UniProt P28472); test: Two-electrode voltage clamp of β3 homomeric receptors expressed in Xenopus oocytes; format: cell-based
T3 construct: expressed in transfected cells; host or cells: Xenopus laevis oocytes injected with β3 mRNA (5 ng/oocyte)
T3 sequence (P28472 26-473): T2 sequence (P28472 26-473)
Source text: as §1, §2, §3
Prism (version 5.04; GraphPad Software, La Jolla, CA, USA) was used for data analysis. […]

γ2L homomeric receptors = molecular target: T4, γ2L homomeric receptors (Homo sapiens, UniProt P18507); test: Two-electrode voltage clamp of γ2L homomeric receptors expressed in Xenopus oocytes; format: cell-based; details: γ2L alone
T4 construct: expressed in transfected cells; host or cells: Xenopus laevis oocytes injected with γ2L mRNA alone (high amounts)
Source text: as §1, §2, §3

α2γ2L receptors = molecular target: T5, α2γ2L receptors (Homo sapiens, UniProt P18507+P47869); test: Two-electrode voltage clamp of binary α2γ2L receptors expressed in Xenopus oocytes; format: cell-based
T5 construct: expressed in transfected cells; host or cells: Xenopus laevis oocytes injected with α2 and γ2L mRNAs
Source text: as §1, §2, §3

α2β3γ2L GABAARs [2] = molecular target: T1, α2β3γ2L GABAARs; parameters: method as in PMID 21797842; details: α2β3γ2L 1:1:10 injection ratio; cited from earlier work

T4 sequence (P18507 40-475): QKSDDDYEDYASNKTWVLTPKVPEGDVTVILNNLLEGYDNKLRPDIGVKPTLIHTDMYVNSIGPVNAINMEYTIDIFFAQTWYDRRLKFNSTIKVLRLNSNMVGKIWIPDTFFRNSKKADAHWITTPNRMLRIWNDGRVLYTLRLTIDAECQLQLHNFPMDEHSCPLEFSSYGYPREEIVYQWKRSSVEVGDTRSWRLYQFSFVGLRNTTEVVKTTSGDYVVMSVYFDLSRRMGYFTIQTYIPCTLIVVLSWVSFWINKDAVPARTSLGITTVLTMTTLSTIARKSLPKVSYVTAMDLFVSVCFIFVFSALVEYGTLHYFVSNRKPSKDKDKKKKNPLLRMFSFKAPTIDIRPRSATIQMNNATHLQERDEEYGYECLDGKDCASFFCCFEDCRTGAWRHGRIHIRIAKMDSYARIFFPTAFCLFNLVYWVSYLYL
T5 sequence (P18507 40-475, one chain of several): as the sequence (P18507 40-475) above
T1 sequence (P18507 40-475, one chain of several): as the sequence (P18507 40-475) above

Expression level (current response elicited by GABA) (α2β3γ2L GABAARs [1]; α2β3γ2L 3:1:3, 3 mM GABA)	Expression level (current response elicited by GABA) (α2β3 GABAARs; α2β3 20:1, 5 ng mRNA, 3 mM GABA, -60 mV)	Expression level (current response elicited by GABA) (β3 homomeric receptors; β3 alone, 5 ng mRNA/oocyte, 60 mM GABA, -60 mV)	Expression level (current response elicited by GABA) (α2γ2L receptors; α2γ2L 1:1, 5 ng mRNA, 60 mM GABA, -60 mV)	Compound	Expression level (current response elicited by GABA) (γ2L homomeric receptors; 20–35 ng mRNA/oocyte, 60 mM GABA, -60 mV)	EC50 (α2β3γ2L GABAARs [1])	2’MeO6MF activity (α2β3γ2L GABAARs [1]; α2β3γ2L 3:1:3)	Direct activation, % of the 3 mM GABA response (α2β3γ2L GABAARs [1]; α2β3γ2L 3:1:3, 300 μM ligand, mean ± SEM)	Enhancement of GABA current (co-application) (α2β3γ2L GABAARs [1]; α2β3γ2L 3:1:3, GABA EC3–10 + 100 or 300 μM ligand, data not shown)	2’MeO6MF activity (α2β3 GABAARs; α2β3 20:1, 100 μM)	Elicited current, % of the 3 mM GABA responses (α2β3 GABAARs; α2β3 20:1, 100 μM ligand)	Enhancement of GABA current (co-application) (α2β3 GABAARs; α2β3 20:1, GABA EC3–10 + 100 or 300 μM ligand, data not shown)	2’MeO6MF activity (β3 homomeric receptors; β3 alone, 3–300 μM)	Maximal inhibition of constitutive activity (normalised against oocyte holding current) (β3 homomeric receptors; β3 homomers, 300 μM ligand)	2’MeO6MF activity (γ2L homomeric receptors; 100 μM)	2’MeO6MF activity (α2γ2L receptors; α2γ2L 1:1, 100 μM)	Agonist efficacy (direct activation) (α2β3γ2L GABAARs [2])
4300 ± 940 nA	1100 ± 220 nA	290 ± 67 nA	no function; also recorded: No current	NCCCC(=O)O [GABA, γ-aminobutyric acid]	not sensitive; also recorded: not responsive; also recorded: No current	–	–	–	–	–	–	–	–	–	–	–	–
–	–	–	–	COc1ccccc1-c1cc(=O)c2cc(C)ccc2o1 [2’MeO6MF, 2’-methoxy-6-methylflavone]	–	~74 µM	Activation	8.2 ± 3.6%	No enhancement	lack of activity; also recorded: Insignificant activation	1.7 ± 0.35%	No enhancement	Inverse agonism	54 ± 3.0%	not sensitive; also recorded: not responsive; also recorded: No current	no function; also recorded: No current	full agonist

Reference: PMC4619705 (PLoS ONE, 2015)
